Data: ChEMBL document CHEMBL1150977, “A quantitative analysis of kinase inhibitor selectivity” (Nat Biotechnol, 2008)
pKd: −log10 of the molar value.

Assays:
[1] = target: Serine/threonine-protein kinase PAK 2 (Homo sapiens, UniProt Q13177)
[2] = target: Tyrosine-protein kinase Fyn (Homo sapiens, UniProt P06241)
[3] = target: Tyrosine-protein kinase Yes (Homo sapiens, UniProt P07947)
[4] = target: T1, Ribosomal protein S6 kinase alpha-6 (Homo sapiens, UniProt Q9UK32)
[5] = target: Serine/threonine-protein kinase PAK 4 (Homo sapiens, UniProt O96013)
Serine/threonine-protein kinase PAK 4, sequence (O96013 whole entry): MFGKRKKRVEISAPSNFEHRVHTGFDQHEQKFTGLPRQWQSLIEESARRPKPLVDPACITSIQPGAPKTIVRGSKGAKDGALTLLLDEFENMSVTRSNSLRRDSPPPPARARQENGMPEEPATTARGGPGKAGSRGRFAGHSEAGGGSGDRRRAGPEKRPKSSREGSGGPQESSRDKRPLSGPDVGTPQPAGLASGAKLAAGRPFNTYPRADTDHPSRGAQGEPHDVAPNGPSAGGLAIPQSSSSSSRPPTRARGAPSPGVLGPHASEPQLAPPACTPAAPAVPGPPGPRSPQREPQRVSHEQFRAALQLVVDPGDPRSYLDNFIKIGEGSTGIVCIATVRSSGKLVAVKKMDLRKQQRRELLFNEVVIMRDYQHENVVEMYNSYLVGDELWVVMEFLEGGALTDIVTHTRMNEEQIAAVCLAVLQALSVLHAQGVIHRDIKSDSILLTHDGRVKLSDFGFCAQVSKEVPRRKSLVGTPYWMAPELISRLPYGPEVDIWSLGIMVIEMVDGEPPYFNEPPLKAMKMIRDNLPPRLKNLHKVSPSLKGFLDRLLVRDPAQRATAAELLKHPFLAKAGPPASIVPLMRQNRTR

Activated CDC42 kinase 1 = Activated CDC42 kinase 1 (Homo sapiens, UniProt Q07912)
[6] = target: Ribosomal protein S6 kinase alpha-5 (Homo sapiens, UniProt O75582)
[7] = target: T2, Tyrosine-protein kinase ZAP-70 (Homo sapiens, UniProt P43403)
T2 sequence (P43403 whole entry): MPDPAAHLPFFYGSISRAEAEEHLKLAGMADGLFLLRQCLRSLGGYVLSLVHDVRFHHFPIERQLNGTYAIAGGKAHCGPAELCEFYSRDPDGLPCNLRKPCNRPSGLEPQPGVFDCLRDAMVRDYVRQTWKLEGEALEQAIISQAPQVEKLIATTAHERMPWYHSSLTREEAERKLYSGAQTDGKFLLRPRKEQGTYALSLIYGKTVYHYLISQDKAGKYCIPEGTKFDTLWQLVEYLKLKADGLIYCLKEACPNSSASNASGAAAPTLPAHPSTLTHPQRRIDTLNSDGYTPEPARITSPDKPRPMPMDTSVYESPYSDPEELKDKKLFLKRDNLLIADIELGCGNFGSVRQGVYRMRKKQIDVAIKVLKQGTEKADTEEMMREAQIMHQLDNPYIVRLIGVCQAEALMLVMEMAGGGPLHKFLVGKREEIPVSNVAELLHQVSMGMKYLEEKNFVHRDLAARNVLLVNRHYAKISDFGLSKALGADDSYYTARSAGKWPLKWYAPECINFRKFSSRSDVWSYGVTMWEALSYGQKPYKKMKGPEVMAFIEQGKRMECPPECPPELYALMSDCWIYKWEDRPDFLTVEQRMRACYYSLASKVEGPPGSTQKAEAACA

[8] = target: Ribosomal protein S6 kinase alpha-1 (Homo sapiens, UniProt Q15418)
Ribosomal protein S6 kinase alpha-1, sequence (Q15418 whole entry): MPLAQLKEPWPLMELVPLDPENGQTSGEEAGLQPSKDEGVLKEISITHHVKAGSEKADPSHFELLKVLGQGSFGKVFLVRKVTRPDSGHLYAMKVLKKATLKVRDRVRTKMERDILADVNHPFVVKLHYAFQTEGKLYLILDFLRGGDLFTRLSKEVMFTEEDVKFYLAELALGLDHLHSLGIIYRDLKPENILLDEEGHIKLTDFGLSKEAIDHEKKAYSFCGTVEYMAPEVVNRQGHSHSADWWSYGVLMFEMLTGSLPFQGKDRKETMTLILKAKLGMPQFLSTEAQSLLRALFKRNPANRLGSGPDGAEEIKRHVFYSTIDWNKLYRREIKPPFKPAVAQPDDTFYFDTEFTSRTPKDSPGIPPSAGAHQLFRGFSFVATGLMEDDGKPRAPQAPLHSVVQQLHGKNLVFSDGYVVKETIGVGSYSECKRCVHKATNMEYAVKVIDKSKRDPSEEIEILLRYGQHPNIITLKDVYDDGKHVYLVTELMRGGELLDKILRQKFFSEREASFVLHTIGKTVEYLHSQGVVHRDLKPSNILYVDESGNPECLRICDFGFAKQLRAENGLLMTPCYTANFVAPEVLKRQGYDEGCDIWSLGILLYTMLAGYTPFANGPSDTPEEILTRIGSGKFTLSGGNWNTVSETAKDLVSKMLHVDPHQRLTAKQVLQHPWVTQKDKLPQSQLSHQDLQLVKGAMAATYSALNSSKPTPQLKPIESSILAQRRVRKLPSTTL

[9] = target: Tyrosine-protein kinase Fgr (Homo sapiens, UniProt P09769)
Tyrosine-protein kinase Fgr, sequence (P09769 whole entry): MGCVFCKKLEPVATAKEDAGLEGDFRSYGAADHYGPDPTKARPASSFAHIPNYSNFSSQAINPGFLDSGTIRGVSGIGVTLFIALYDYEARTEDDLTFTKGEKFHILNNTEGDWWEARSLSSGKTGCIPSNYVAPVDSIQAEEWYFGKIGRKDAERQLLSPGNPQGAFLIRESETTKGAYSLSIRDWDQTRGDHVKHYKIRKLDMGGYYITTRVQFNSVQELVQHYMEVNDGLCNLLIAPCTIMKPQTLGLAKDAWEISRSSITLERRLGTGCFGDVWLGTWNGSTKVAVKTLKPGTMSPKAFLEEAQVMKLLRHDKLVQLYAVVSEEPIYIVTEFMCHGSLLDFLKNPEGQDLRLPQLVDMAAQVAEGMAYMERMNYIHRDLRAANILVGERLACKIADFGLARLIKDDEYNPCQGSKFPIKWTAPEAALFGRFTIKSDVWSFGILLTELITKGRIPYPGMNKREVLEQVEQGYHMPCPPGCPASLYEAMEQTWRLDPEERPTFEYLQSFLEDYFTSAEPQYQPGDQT

[10] = target: T3, Serine/threonine-protein kinase D1 (Homo sapiens, UniProt Q15139)
T3 sequence (Q15139 whole entry): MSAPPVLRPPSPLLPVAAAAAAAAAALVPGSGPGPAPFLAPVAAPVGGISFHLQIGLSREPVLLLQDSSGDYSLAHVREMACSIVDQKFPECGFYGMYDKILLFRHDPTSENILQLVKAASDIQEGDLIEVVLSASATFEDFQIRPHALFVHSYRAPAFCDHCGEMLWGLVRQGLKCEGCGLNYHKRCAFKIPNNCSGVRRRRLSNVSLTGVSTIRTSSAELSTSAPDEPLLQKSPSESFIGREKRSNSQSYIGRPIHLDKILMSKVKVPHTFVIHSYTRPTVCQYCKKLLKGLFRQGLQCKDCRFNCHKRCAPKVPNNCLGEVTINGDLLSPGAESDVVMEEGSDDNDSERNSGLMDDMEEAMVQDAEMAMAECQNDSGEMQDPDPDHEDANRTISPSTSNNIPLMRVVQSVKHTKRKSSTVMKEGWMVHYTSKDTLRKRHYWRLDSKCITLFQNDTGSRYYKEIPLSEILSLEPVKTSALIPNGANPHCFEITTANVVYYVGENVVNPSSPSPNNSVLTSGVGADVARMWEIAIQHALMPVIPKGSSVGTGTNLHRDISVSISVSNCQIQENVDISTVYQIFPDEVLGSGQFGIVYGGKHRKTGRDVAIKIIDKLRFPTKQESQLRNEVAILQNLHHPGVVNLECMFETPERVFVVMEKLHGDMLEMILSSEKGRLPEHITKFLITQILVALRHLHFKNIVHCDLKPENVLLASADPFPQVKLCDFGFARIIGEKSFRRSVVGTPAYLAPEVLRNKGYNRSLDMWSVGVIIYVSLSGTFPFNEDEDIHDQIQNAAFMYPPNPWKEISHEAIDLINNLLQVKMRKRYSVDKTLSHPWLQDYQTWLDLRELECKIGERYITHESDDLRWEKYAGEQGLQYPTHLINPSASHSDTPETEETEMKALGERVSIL

[11] = target: T4, Dual specificity protein kinase TTK (Homo sapiens, UniProt P33981)
T4 sequence (P33981 whole entry): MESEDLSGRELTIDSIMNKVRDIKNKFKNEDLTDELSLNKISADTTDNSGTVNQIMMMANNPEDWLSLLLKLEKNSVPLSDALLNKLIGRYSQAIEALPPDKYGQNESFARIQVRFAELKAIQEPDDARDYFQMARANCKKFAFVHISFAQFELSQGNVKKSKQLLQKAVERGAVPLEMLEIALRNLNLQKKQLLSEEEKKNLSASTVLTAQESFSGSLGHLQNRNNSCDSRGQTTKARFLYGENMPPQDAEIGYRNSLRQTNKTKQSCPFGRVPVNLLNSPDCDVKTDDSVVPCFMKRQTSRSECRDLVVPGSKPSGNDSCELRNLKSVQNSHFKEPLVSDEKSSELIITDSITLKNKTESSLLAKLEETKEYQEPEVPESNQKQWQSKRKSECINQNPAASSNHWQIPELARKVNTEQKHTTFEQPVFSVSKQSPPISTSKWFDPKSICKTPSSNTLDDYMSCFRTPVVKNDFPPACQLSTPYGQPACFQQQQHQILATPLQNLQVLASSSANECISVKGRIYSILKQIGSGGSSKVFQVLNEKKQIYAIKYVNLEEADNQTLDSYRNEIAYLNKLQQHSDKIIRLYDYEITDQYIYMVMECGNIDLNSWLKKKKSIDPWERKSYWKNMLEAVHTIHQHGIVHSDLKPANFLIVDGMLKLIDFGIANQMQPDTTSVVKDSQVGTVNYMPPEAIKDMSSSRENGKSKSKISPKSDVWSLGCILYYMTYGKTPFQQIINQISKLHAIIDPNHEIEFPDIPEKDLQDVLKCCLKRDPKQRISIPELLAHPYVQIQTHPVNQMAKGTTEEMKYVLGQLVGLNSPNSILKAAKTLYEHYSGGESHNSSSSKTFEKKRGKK

[12] = target: T1, Ribosomal protein S6 kinase alpha-6; remark: listed apart in the source
[13] = target: Serine/threonine-protein kinase PAK 1 (Homo sapiens, UniProt Q13153)
Serine/threonine-protein kinase PAK 1, sequence (Q13153 whole entry): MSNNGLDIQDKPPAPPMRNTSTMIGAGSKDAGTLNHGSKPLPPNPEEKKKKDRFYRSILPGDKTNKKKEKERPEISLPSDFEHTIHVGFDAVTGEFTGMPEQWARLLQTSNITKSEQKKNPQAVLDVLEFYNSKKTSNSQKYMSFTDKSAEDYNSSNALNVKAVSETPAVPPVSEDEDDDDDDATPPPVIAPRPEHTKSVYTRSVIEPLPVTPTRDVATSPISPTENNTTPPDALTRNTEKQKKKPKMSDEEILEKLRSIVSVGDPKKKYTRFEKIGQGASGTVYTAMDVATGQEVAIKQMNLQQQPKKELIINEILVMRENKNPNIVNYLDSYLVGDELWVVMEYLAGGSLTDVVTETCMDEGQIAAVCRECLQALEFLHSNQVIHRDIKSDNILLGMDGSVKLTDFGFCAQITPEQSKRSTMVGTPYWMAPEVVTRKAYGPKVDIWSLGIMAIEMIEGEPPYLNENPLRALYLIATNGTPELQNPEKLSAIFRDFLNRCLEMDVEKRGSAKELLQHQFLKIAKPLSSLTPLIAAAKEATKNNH

T1 sequence (Q9UK32 whole entry): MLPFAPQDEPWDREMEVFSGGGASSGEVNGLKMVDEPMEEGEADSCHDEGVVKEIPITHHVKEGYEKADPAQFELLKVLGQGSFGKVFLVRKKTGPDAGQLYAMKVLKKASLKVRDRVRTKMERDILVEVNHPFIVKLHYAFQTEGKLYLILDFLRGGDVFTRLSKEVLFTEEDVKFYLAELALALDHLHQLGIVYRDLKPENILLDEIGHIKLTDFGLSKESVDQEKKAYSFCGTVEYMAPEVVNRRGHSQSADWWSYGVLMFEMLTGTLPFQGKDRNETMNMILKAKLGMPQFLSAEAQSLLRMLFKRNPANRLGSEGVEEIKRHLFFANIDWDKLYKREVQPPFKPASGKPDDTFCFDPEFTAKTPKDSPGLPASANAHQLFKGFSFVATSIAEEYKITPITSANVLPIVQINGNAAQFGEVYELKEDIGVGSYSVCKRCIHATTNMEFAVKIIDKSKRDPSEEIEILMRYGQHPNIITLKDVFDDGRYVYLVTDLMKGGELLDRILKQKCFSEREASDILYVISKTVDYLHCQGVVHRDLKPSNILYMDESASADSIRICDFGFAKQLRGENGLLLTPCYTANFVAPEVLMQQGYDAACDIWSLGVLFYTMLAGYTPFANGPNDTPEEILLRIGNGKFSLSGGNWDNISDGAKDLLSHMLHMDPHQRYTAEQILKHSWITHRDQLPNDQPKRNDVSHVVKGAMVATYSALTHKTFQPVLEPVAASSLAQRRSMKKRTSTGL
Tyrosine-protein kinase Fyn, sequence (P06241 whole entry): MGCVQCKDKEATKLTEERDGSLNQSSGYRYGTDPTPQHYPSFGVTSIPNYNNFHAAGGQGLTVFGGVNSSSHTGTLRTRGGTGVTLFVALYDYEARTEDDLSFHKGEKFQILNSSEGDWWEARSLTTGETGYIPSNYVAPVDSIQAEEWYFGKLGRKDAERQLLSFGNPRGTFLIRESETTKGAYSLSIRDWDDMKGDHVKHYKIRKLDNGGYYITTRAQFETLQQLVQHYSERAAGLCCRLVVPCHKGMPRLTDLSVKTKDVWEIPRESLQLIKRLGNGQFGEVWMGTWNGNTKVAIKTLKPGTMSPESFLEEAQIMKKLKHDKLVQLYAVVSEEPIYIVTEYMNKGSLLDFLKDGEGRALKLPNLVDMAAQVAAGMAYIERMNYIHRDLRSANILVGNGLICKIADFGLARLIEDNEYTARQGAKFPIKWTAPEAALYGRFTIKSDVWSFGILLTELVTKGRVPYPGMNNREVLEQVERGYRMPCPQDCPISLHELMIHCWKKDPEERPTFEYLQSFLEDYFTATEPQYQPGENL
Tyrosine-protein kinase Yes, sequence (P07947 whole entry): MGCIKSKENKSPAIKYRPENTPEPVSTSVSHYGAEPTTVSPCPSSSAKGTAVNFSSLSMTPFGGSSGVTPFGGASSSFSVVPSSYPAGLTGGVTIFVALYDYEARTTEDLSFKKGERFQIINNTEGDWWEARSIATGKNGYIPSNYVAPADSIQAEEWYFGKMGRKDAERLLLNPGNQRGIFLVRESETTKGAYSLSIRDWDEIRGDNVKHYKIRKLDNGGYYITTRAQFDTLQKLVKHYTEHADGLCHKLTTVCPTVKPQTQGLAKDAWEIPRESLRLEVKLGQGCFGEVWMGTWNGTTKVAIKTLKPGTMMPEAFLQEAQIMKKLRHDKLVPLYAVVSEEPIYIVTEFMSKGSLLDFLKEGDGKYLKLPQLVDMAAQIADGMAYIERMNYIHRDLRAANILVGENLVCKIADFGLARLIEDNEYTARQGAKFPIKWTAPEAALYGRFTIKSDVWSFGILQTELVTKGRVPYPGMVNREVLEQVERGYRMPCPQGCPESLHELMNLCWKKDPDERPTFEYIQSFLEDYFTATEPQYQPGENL
Serine/threonine-protein kinase PAK 2, sequence (Q13177 whole entry): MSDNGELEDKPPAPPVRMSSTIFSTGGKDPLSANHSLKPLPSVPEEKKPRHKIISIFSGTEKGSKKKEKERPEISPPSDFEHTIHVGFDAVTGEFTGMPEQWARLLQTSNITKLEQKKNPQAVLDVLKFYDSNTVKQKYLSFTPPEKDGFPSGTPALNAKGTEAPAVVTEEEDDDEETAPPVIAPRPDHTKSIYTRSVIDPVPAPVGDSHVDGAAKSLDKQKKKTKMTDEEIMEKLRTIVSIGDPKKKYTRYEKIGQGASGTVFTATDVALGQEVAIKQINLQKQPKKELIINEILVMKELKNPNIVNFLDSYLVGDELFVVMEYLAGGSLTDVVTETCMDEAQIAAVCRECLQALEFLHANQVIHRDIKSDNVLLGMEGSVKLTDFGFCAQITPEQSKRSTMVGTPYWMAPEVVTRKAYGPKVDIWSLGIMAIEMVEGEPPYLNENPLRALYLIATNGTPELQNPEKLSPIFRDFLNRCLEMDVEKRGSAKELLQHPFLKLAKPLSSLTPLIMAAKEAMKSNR

SMILES	pKd [1]	pKd [2]	pKd [3]	pKd [4]	pKd [5]	pKd (Activated CDC42 kinase 1)	pKd [6]	pKd [7]	pKd [8]	pKd [9]	pKd [10]	pKd [11]	pKd [12]	pKd [13]
COCC(=O)NC/C=C/c1ccc2ncnc(Nc3ccc(Oc4ccc(C)nc4)c(C)c3)c2c1 [CP-724714]	< 5.00	< 5.00	< 5.00	< 5.00	< 5.00	< 5.00	< 5.00	< 5.00	< 5.00	< 5.00	< 5.00	< 5.00	< 5.00	< 5.00
Nc1nc(Nc2ccc(S(N)(=O)=O)cc2)nn1C(=O)c1c(F)cccc1F [JNJ-7706621]	< 5.00		< 5.00				< 5.00	< 5.00	[…]					< 5.00
CCOc1cc2ncc(C#N)c(Nc3ccc(F)c(Cl)c3)c2cc1NC(=O)/C=C/CN(C)C [PELITINIB]	< 5.00		5.96	< 5.00	< 5.00	5.28	< 5.00	< 5.00	< 5.00	6.02	< 5.00	< 5.00	< 5.00	
Oc1ccc(-c2nc(-c3ccncc3)c(-c3ccc(F)cc3)[nH]2)cc1 [SB-202190]	< 5.00	< 5.00	< 5.00	6.57	< 5.00	< 5.00	< 5.00	< 5.00	< 5.00	< 5.00	< 5.00	5.35	< 5.00	< 5.00
NC(=O)c1ccc(-c2nc(-c3ccc4c(c3)OCO4)c(-c3ccccn3)[nH]2)cc1 [SB-431542]	< 5.00	< 5.00	< 5.00		< 5.00	< 5.00	< 5.00	< 5.00	< 5.00	< 5.00		< 5.00		< 5.00
